The text below walks through data of US20220041559A1, “BENZO-AND PYRIDO-PYRAZOLES AS PROTEIN KINASE INHIBITORS” (ROTTAPHARM BIOTECH S.R.L., priority 2019, published 2022).

One may read the IC50 as the concentration needed to halve the response being measured. A higher IC50 goes with a need for much substance. For orientation: AUC(0-inf) means the area under the concentration-time curve extrapolated to infinity. A higher AUC(0-inf) goes with more exposure. The AUC(0-t) is the area under the concentration-time curve up to a stated or last time point. By Cmax is commonly meant the highest concentration seen after dosing. A word on the Tmax: it is the time from dosing to the highest level. One may read the bioavailability as the share of a dose that reaches the circulation, judged against a reference dose that is usually intravenous. A high value points to good availability.

In one data set the target is EGFR (Homo sapiens, UniProt P00533). Briefly: ADP-Glo in vitro kinase assay, EGFR kinase inhibition. Set-up: purchased SignalChem. The class given is biochemical. The note with it: for IC50: ATP 10 μM, 30 minutes at room temperature; for EGFR kinase inhibition, result in words: text summary of Table 18. As to the method: (§1) The ADP-Glo™ Kinase Assay (Promega), monitoring ADP produced in the kinase reaction, was performed in two steps. In the first one, after the kinase reaction, the ADP-Glo™ Reagent is added to terminate the kinase reaction and deplete the remaining ATP. In the second step, the Kinase Detection Reagent is added to simultaneously convert ADP to ATP (ATPn or newly synthesized ATP) and introduce luciferase and luciferin, allowing the ATPn to be measured (luciferase/luciferin reaction). The amount of light generated correlates with the amount of ATPn (indirectly with the ADP produced in kinase reaction).
Chain of EGFR (P00533 25-1210): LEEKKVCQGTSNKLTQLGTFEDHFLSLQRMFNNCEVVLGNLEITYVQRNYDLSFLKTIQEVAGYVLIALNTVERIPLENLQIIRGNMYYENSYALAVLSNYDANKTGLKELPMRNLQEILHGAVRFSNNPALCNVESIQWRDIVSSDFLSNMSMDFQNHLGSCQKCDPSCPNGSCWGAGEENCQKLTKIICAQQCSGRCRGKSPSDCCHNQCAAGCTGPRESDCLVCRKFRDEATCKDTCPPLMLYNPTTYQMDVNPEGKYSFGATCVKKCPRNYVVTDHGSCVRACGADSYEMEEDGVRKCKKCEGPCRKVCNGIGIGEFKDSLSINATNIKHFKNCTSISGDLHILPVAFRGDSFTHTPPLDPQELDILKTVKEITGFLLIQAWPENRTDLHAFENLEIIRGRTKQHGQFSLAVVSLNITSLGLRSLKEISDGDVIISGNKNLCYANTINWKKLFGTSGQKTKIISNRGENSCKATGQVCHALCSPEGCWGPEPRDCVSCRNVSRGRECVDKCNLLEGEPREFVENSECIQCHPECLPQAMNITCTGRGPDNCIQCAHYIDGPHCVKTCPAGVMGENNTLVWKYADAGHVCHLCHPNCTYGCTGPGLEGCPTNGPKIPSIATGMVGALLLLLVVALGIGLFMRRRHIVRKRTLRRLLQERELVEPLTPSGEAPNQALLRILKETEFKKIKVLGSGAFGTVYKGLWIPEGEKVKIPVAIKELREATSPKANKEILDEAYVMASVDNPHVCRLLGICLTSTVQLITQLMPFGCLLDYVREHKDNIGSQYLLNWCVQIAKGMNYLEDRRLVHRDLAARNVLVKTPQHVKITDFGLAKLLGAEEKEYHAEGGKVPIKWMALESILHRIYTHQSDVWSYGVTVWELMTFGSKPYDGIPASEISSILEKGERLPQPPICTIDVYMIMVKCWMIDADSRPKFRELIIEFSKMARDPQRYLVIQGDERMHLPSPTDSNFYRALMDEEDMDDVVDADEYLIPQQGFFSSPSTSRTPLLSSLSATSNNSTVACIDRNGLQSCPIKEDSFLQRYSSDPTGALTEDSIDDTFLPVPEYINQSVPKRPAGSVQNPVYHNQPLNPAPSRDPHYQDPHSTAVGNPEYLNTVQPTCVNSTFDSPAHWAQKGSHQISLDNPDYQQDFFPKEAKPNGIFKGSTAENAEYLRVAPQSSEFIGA
(§2) Kinase reaction was performed in 10 μl in a white 384-well plate, inhibitor solutions in DMSO/Kinase buffer (40 mM Tris-Cl, 20 mM MgCl2, 0.1 mg/ml BSA, 50 μM DTT, pH 7.5) and EGFR kinase in Kinase buffer (SignalChem, 2.5 ng/μl final concentration in assay) were pre-incubate 15 minutes at room temperature. At the kinase concentration selected a signal-to negative control ratio >10 was calculated, according to supplier indication. In samples representing the Total enzymatic activity (no inhibitor) or the negative control (no enzyme), inhibitor solution was replaced by diluents (1 DMSO in kinase buffer, final concentration) or ultra-pure water, respectively.
(§3) The range of inhibitor concentrations was from 10^−11 M up to 3×10^−6 M (final concentration in assay) and each experimental point was performed in duplicate.
(§4) To start the reaction, a substrate/ATP mix (ATP 10 μM final concentration, near to ATP Km value) was added to each sample and after 30 minutes incubation at room temperature, ADP-Glo™ Reagent and Kinase Detection Reagent, incubated in sequence according to the respective incubation time and supplier indication, allowed to stop and develop the kinase reaction. The luminescence was measured with a plate-reading luminometer (Envision 2104 Multilabel reader, PerkinElmer). The percentage of inhibition was calculated towards the Total enzymatic activity and the corresponding curves were analyzed by non linear curve fitting (GraphPad software, version 7 for Windows), allowing to calculate the IC50 value±standard error of the estimate.
In general terms: In ADP-Glo the light output rises with the ADP produced.

Another data set concerns the target T1, FYN (Homo sapiens, UniProt P06241).
T1 construct: purchased CarnaBioscience
The experiment in a line: Z'-LYTE in vitro kinase assay, FYN kinase inhibition. The data set is classed as biochemical. The note with it: near-Km ATP, 60 minutes at 25° C. As to the method:
Assays to determine the kinase inhibitory activity of compounds were performed using an automatic liquid handling device (Microlab STAR Hamilton) and Z′-LYTE™ Kinase Assay Platform (Invitrogen), a Fluorescence Resonance Energy Transfer (FRET)-based assay platform compatible with high-throughput screening (HTS) applications. The assay employs a fluorescence-based, coupled-enzyme format and utilizes the differential sensitivity of phosphorylated and non-phosphorylated peptides to proteolytic cleavage.
Test compounds were evaluated towards active FYN (CarnaBioscience). The enzyme was incubated in a 384 low-volume microplate with a synthetic peptide-substrate, ATP and different inhibitor concentrations, ranging from 10^−10 M up to 10^−5 M final concentration. Samples representing the 0% inhibition (or total enzymatic activity) were in the presence of compound diluent (1% DMSO final) in Reaction Buffer (50 mM Hepes, 10 mM MgCl2, 1 mM EGTA, 0.01% Brij-35, pH 7.5).
A near-Km ATP concentrations for the kinase and an optimal enzyme concentration that phosphorylates 20-40% of the Z′-LYTE™ Tyr 2 Peptide in a one-hour incubation, were selected. All reagents were diluted in reaction buffer and the kinase reaction was carried out in a total volume of 10 μl, for 60 minutes at 25° C. The 0% Phosphorylation (i.e. no ATP) and 100% Phosphorylation (i.e. synthetically phosphorylated peptide supplied) Assay Controls, included in each plate, allowed to calculate the percent phosphorylation achieved in the specific reaction well. The 0% Inhibition and 0% Phosphorylation (i.e. 100% Inhibition) Controls define the dynamic range in the screen. At the end of incubation, a secondary reaction (the Development Reaction) started by adding 5 μl of Development Reagent, containing a site-specific protease that recognizes and cleaves non-phosphorylated peptides, and was interrupted after 60 minutes with 5 μl/sample of Stop Reagent. Measurement of the Coumarin (Ex. 400 nm, Em. 460 nm) and Fluorescein (Ex. 400 nm, Em. 535 nm) emission signals were performed by a fluorescence plate reader (Envision, PerkinElmer).
Results are expressed as percentage of inhibition and the IC50 values were calculated by non-linear curve fitting using GraphPad™ Prism software.

Another data set deals with T2, VEGFR2 (KDR) kinase (Homo sapiens, UniProt P35968).
T2 construct: purchased SignalChem
T2 sequence (P35968 20-1356): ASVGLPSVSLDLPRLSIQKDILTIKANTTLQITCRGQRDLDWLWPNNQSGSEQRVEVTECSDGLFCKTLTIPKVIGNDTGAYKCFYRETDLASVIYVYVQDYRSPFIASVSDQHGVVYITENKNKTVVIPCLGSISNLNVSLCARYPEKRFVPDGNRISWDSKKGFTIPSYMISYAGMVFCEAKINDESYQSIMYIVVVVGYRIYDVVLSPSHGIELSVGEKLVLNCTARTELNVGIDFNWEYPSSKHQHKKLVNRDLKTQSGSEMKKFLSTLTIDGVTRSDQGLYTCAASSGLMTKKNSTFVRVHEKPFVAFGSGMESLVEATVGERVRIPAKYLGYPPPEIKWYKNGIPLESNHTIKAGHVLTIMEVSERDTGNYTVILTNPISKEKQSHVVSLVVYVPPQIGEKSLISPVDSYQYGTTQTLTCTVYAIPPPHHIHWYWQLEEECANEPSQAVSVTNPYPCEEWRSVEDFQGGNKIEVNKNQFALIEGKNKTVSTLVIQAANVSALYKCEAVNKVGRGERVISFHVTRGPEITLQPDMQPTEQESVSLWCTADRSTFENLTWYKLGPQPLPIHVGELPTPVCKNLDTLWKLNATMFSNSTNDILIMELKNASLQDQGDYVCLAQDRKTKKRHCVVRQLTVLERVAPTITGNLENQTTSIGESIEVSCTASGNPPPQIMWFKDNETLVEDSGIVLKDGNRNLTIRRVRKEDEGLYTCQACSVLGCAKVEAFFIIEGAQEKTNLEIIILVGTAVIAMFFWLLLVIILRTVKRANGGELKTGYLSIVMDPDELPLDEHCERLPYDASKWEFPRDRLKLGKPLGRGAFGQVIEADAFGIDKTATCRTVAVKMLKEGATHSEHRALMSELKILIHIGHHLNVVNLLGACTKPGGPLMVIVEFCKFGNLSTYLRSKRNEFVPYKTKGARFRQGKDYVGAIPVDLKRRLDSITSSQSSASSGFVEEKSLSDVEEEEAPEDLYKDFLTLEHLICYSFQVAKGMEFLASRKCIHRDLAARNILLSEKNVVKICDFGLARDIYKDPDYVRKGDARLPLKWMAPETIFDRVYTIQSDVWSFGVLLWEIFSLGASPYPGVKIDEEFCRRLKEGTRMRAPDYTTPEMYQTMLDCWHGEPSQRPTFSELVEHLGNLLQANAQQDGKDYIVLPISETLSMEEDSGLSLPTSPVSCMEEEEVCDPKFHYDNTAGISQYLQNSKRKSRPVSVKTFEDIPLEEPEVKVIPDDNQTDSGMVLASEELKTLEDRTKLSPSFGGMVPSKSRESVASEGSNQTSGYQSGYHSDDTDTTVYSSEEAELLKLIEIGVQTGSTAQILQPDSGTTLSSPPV
Briefly: ADP-Glo in vitro kinase assay, VEGFR2 kinase inhibition. The data set is classed as biochemical. The note with it: for IC50: ATP 50 μM, 30 minutes at room temperature; for VEGFR2 kinase inhibition, result in words: Table 19. As to the method:
as §1
as §2, with “VEGFR2 (KDR)” for “EGFR”, “0.5” for “2.5”, “selected,” for “selected”, “activity” for “activity (no inhibitor)”
as §3
as §4, with “(50” for “(ATP 10”, “value” for “estimate.”

Data set [1] in a line: Pharmacokinetics in CD1 mice, iv and po. The class given is in vivo. As to conditions: 3 mg/kg; for half-life: read-out: t½* (converted).
Another data set addresses human FynB (Homo sapiens, UniProt P06241). The experiment in a line: Inhibition of FynB-induced Tau(Y18)-phosphorylation (cell-based assay, HEK293). As to conditions: HEK293 over-expressing FynB and Tau 0N4R; incubation 6 or 24 hours; ELISA. As to the method: HEK293 cells (Human Embryonic Kidney 293) were seeded at 6×10^5 in poly-D-lysine 12 w microplates and grown adherent in medium DMEM/10% FBS at 37° C. with 5% CO2. After 24 h, cells were transfected in order to over-express either constitutively active form of human FynB and Tau protein (isoform 0N4R), through an optimized Lipofectamine® 3000 Transfection protocol (Life Technologies™). A non-transfected sample (negative control) was included in every experiment.
Twenty-four hours from transfection, treatments of cells were performed by adding fresh medium containing diluent (DMSO 0.1% final concentration) or test compounds. The incubation was carried out for 6 or 24 hours at 37° C. with 5% CO2. All experimental conditions were performed in duplicate.
At the end of the incubation, the medium was removed and cellular lysates were obtained by adding M-PER lysis buffer containing a 1× Protease/Phosphatase inhibitors cocktail. Then, lysates were transferred into Eppendorf tubes, sonicated and stored at −80° C.
Protein content was measured by Bradford method. Lysates were analyzed by a customized ELISA assay for Tau phosphorylation (Tyrosine 18 residue-Fyn mediated) and Total amount determination. The net OD values were used to calculate the inhibitory effect of compounds.
Background: An ELISA detects its analyte on a solid surface through an enzyme-linked reagent.

Like-named read-outs stand apart in the source and are kept apart here.

T1 sequence (P06241 whole entry): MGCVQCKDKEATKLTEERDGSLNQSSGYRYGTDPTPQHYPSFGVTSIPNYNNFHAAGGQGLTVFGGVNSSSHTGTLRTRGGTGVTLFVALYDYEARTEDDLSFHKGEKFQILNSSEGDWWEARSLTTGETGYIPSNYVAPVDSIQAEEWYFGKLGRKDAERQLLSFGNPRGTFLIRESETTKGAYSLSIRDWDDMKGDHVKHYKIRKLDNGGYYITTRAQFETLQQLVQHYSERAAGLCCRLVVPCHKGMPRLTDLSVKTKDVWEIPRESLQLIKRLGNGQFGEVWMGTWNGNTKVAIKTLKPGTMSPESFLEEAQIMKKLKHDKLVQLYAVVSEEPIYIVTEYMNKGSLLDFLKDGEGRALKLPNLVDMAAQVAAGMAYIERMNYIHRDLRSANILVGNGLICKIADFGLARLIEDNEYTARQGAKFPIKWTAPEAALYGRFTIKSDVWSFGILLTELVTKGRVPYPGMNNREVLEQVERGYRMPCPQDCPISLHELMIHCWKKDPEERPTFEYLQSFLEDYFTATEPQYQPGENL
Chain of human FynB (P06241 271-524 limits assumed): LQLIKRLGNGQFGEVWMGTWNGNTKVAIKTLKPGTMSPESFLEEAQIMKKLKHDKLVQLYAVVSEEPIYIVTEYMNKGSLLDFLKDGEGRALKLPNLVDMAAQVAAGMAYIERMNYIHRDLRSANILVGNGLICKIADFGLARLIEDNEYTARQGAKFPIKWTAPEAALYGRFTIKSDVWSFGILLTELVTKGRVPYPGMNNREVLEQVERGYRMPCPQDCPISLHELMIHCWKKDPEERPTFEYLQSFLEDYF

`CN1CCC(c2ccc(C(=O)Nc3n[nH]c4cc(Nc5c(F)cccc5Cl)ccc34)cc2)CC1` [Compound 1, N-(6-((2-chloro-6-fluorophenyl)amino)-1H-indazol-3-yl)-4-(1-methylpiperidin-4-yl)benzamide]: the IC50 worked out at 102 nM on EGFR, 104 nM against FYN and 105 nM against VEGFR2 (KDR) kinase. Also, the “EGFR kinase inhibition, result in words” value at EGFR is on record as “more active”.
Take `Cc1ccc(Nc2ccc3c(NC(=O)c4ccc(C5CCN(C)CC5)cc4)n[nH]c3c2)c(F)c1` [Compound 8, N-(6-((2-fluoro-4-methylphenyl)amino)-1H-indazol-3-yl)-4-(1-methylpiperidin-4-yl)benzamide]: the IC50 at EGFR is at least 1000 nM; at FYN it was 99 nM; on VEGFR2 (KDR) kinase it was 126 nM.
The like results for `CN1CCC(c2ccc(C(=O)Nc3n[nH]c4cc(Nc5ccccc5Cl)ccc34)cc2)CC1` [Compound 14, N-(6-((2-chlorophenyl)amino)-1H-indazol-3-yl)-4-(1-methylpiperidin-4-yl)benzamide] were, in that order, at least 1000 nM, 82 nM and 58 nM.
Compound `CN1CCC(c2ccc(C(=O)Nc3n[nH]c4cc(Nc5ccccc5F)ccc34)cc2)CC1` [Compound 17, N-(6-((2-fluorophenyl)amino)-1H-indazol-3-yl)-4-(1-methylpiperidin-4-yl)benzamide] had an IC50 on EGFR of 225 nM. This compound also returned an IC50 against FYN of 87 nM. Also, the Tlast in data set [1] (iv) is given as 24 h. In data set [1] (mouse, plasma, iv), the AUC(0-inf) worked out at 1400 ng·h/mL, the AUC(0-t) worked out at 1350 ng·h/mL and the half-life is 5.5 h. In addition, the clearance in data set [1] (mouse, plasma, iv, read-out: CLp) turned out to be 47.7 mL/min/kg. Moreover, the Vd in data set [1] (mouse, plasma, iv, read-out: Vz) stood at 22.8 L/kg. For the same compound, in data set [1] (mouse, plasma, po), the total exposure AUC(0-inf) was found to be 726 ng·h/mL, the AUC(0-t) amounted to 712 ng·h/mL, the Cmax amounted to 178 nM and the Tmax was determined as 1 h. In data set [1] (mouse, plasma, po), the bioavailability came to 53% and the half-life was 4.5 h. Further, the Tlast in data set [1] (po) is reported as 24 h. In addition, at VEGFR2 (KDR) kinase, 222 nM corresponded to half-maximal inhibition (IC50).
As to `COCCN1CCC(c2ccc(C(=O)Nc3n[nH]c4nc(Nc5ccccc5F)ccc34)cc2)CC1` [Compound 25, N-(6-((2-fluorophenyl)amino)-1H-pyrazolo[3,4-b]pyridin-3-yl)-4-(1-(2-methoxyethyl)piperidin-4-yl)benzamide], the values for the IC50 on FYN and against human FynB were 238 nM and 1770 nM, respectively.
With `CN1CCC(c2ccc(C(=O)Nc3n[nH]c4nc(Nc5ccccc5)ccc34)cc2)CC1` [Compound 29, 4-(1-methylpiperidin-4-yl)-N-(6-(phenylamino)-1H-pyrazolo[3,4-b]pyridin-3-yl)benzamide], the results for the IC50 at EGFR, on FYN and against VEGFR2 (KDR) kinase were at least 1000 nM, 95 nM and 1 nM, respectively. On VEGFR2 (KDR) kinase, the “VEGFR2 kinase inhibition, result in words” value was “more potent”.
For `CN1CCC(c2ccc(C(=O)Nc3n[nH]c4nc(Nc5ccc(C#N)cc5)ccc34)cc2)CC1` [Compound 32, N-(6-((4-cyanophenyl)amino)-1H-pyrazolo[3,4-b]pyridin-3-yl)-4-(1-methylpiperidin-4-yl)benzamide], in that order: at least 1000 nM, 356 nM, 3 nM and “more potent”.
In the case of `COc1ccc(Nc2ccc3c(NC(=O)c4ccc(C5CCN(C)CC5)cc4)n[nH]c3n2)cc1F` [Compound 33, N-(6-((3-fluoro-4-methoxyphenyl)amino)-1H-pyrazolo[3,4-b]pyridin-3-yl)-4-(1-methylpiperidin-4-yl)benzamide], the half-inhibitory concentration (IC50) came out at 103 nM on FYN and 1850 nM on human FynB.
On to `CN1CCC(Oc2ccc(C(=O)Nc3n[nH]c4cc(Oc5ccccc5F)ccc34)cc2)CC1` [Compound 37, N-(6-(2-fluorophenoxy)-1H-indazol-3-yl)-4((1-methylpiperidin-4-yl)oxy)benzamide], for which the IC50 against EGFR is at least 1000 nM; against FYN it was 388 nM; at VEGFR2 (KDR) kinase, 437 nM.
On to `CN1CCC(c2ccc(C(=O)Nc3n[nH]c4cc(Nc5ccccc5F)ccc34)nc2)CC1` [Compound 39, N-(6((2-fluorophenyl)amino)-1H-indazol-3-yl)-5-(1-methylpiperidin-4-yl)picolinamide], for which the IC50 at EGFR is at least 1000 nM; against FYN it was 181 nM; against VEGFR2 (KDR) kinase it was 533 nM.
In the case of `CN1CCC(Oc2ccc(C(=O)Nc3n[nH]c4nc(Nc5ccccc5F)ccc34)cc2)CC1` [Compound 47, N-(6-((2-fluorophenyl)amino)-1H-pyrazolo[3,4-b]pyridin-3-yl)-4((1-methylpiperidin-4-yl)oxy)benzamide], on EGFR, the IC50 is 24 nM and the “EGFR kinase inhibition, result in words” value is on record as “more active”. Besides, 513 nM corresponded to half-maximal inhibition against FYN (IC50). In addition, on VEGFR2 (KDR) kinase, inhibition was half-maximal at 12 nM (IC50) and the “VEGFR2 kinase inhibition, result in words” value is given as “more potent”.
